Test results as given in ChEMBL document CHEMBL3638822, “Pyrazolopyrimidine compounds and their use as PDE10 inhibitors” (2015).

These compounds were tested against T1, Phosphodiesterase (Bos taurus, UniProt F1MPW5) (assay: Inhibition Assay: The PDE assay was performed according to a modified method referred to a report of Kotera et al. (Kotera et al., Biochem. Pharmacol., vol. 60, pp. 1333-1341, 2000), by the radiolabeled nucleotide method.Specifically, the measurements of the inhibitory activities were carried out in the following method.(Method) The test compounds were dissolved in dimethyl sulfoxide (DMSO). 2 uL of the compound solution was added to 96 well plate, and the reaction mixture (20 uL of PDE enzyme solution in 50 mM Tris-HCl, pH 8.0, 40 uL of the assay buffer (50 mM Tris-HCl, pH 8.0, 2 mM MgCl2, 0.07% 2-mercaptoethanol, and 0.825 mg/mL bovine serum albumin), and 20 uL of 1 mg/mL snake venom in 50 mM Tris-HCl, pH8.0) was added to the 96 well plate. The enzyme reaction was started by adding and mixing with substrate solution of 20 L containing approximate 35 nM 3H-cAMP in 50 mM Tris-HCl, pH 8.0. The final concentration of cAMP in the reaction mixtures was 7 nM.).
T1 sequence (F1MPW5 whole entry): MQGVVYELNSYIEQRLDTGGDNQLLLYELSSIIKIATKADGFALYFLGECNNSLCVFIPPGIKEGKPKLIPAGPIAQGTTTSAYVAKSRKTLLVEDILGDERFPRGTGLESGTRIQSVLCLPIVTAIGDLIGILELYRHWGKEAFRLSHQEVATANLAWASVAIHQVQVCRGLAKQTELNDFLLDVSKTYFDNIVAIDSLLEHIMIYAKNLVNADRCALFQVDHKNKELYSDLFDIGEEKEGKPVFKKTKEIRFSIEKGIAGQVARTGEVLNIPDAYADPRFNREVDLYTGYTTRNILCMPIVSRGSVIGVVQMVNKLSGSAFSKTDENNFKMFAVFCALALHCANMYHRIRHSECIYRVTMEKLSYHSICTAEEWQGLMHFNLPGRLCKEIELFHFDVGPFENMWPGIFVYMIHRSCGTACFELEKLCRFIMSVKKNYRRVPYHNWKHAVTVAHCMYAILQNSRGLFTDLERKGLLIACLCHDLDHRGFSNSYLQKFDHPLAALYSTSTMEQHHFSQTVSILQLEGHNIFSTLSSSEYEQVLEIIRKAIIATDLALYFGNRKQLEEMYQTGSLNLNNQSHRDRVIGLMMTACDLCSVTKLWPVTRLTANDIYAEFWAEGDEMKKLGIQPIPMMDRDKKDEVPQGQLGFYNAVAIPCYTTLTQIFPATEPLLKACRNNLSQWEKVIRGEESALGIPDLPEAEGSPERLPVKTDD

SMILES | IC50 [nM]
CCCN1CCC(Nc2cc(N3CCCC3)nc3cc(-c4nc5cc(C)ccc5nc4C)nn23)CC1 | 0.15
Cc1nc2ccccc2nc1-c1cc2nc(N3CCC[C@H]3CO)cc(N[C@@H]3CCCOC3)n2n1 | 0.39
CCc1nc2ccccc2nc1-c1cc2nc(N3CC[C@@H](F)C3)cc(N[C@H]3CC[C@H](OC)CC3)n2n1 | 0.39
CC(=O)N1CCC(Nc2cc(N3CCCC3)nc3cc(-c4nc5cc(C)ccc5nc4C)nn23)CC1 | 0.044
Cc1ccc2nc(C)c(-c3cc4nc(N5CCCC5)cc(NCCN(C)C)n4n3)nc2c1 | 0.17
Cc1nc2ccccc2nc1-c1cc2nc(N3CC[C@@H](F)C3)cc(NCC(C)(C)O)n2n1 | 0.32
Cc1nc(C)c(-c2cc3nc(N4CCCC4)cc(N(C)C4CCOCC4)n3n2)nc1C | 0.48
Cc1nc2ccccc2nc1-c1cc2nc(N3CCCC3)cc(NC3CCOCC3)n2n1 | 0.11
Cc1ccc2nc(C)c(-c3cc4nc(N5CC(O)C5)cc(NC5CCOCC5)n4n3)nc2c1 | 1.08
CO[C@H]1CC[C@H](Nc2cc(N3CCCC3)nc3cc(-c4nc5cc(C(F)(F)F)ccc5nc4C)nn23)CC1 | 0.045
Cc1nc2ccccc2nc1-c1cc2nc(N3CCCC3)cc(N3CCCC3)n2n1 | 0.57
Cc1ccc2nc(-c3cc4nc(N5CCCC5)cc(NC5CCOCC5)n4n3)c(C)nc2c1 | 0.46
Cc1nc2ccccc2nc1-c1cc2nc(N3CCCC3)cc(CC3CCOCC3)n2n1 | 0.36
Cc1nc2ccc(F)cc2nc1-c1cc2nc(N3CCCC3)cc(N[C@H]3CCCC[C@@H]3O)n2n1 | 0.035
Cc1nc2ccccc2nc1-c1cc2nc(N3CCCC3)cc(NCCC#N)n2n1 | 0.052
Cc1nc2ccccc2nc1-c1cc2nc(N3CC[C@@H](F)C3)cc(NC3CCOCC3)n2n1 | 0.83
Cc1nc2ccccc2nc1-c1cc2nc(N3CC[C@@H](F)C3)cc(NC3CC3)n2n1 | 0.87
Cc1nc2c(C)cccc2nc1-c1cc2nc(N3CCCC3)cc(NC3CCOCC3)n2n1 | 0.78
Cc1ccc2nc(C)c(-c3cc4nc(N5CCCC5)cc(N[C@@H]5CCS(=O)(=O)C5)n4n3)nc2c1 | 0.0085
Cc1nc2ccccc2nc1-c1cc2nc(N3CC=CC3)cc(NC3CCOCC3)n2n1 | 0.2
Cc1nc2ccccc2nc1-c1cc2nc(N3CCCC3)cc(OC3CCOCC3)n2n1 | 0.38
Cc1nc2ccccc2nc1-c1cc2nc(N3CC[C@@H](F)C3)cc(NC3COC3)n2n1 | 0.65
Cc1nc2ccccc2nc1-c1cc2nc(C3=CCCC3)cc(NC3CCOCC3)n2n1 | 0.22
Cc1nc2ccc(F)cc2nc1-c1cc2nc(N3CC[C@@H](F)C3)cc(N[C@H]3CC[C@](C)(O)CC3)n2n1 | 0.09
Cc1nc2ccc(F)cc2nc1-c1cc2nc(N3CC[C@@H](F)C3)cc(NCC(C)(C)O)n2n1 | 0.09
Cc1nc2ccccc2nc1-c1cc2nc(N3CCCC3)cc(N(C)C3CCOCC3)n2n1 | 0.0045
Cc1nc2c(nc1-c1cc3nc(N4CCCC4)cc(NC4CCC(F)(F)CC4)n3n1)CCCC2 | 0.23
Cc1nc2ccccc2nc1-c1cc2nc(N3CCCC3)cc(NC[C@H](O)C(F)(F)F)n2n1 | 0.13
C[C@]1(O)CC[C@H](Nc2cc(N3CC[C@@H](F)C3)nc3cc(-c4nc5ccccc5nc4C(F)(F)F)nn23)CC1 | 0.18
Cc1ccc2nc(C)c(-c3cc4nc(N5CCC[C@H]5CO)cc(N(C5CCOCC5)C5CC5)n4n3)nc2c1 | 0.0068
